In US8258098B2, “Antitumoral treatments” (Pharma Mar, S.A., priority 2006, dated 2012):

Legend:
Assay in all cases: MTS cytotoxicity assay, 72 hours, single agents and combinations with Aplidine
Type in all cases: cell-based
A549 cells = details: A549, 72 hours drug exposure, read-out: IC50 (Molar)
Procedure: (§1) Day before plating cells all cultures were fed with fresh, complete growth media. On the harvest (plating) day cells were counted by Trypan Blue exclusion staining method (basic cell culture). Cells were harvested and seeded in 96 well microtiter plates at 10,000 cells per well in 190 μL of media and incubated for 24 hours to allow the cells to attach before drug addition. Cells were treated with the drugs and the cytotoxic effect was measured by the MTS Assay (Tetrazolium), which is a colorimetric method for determining the number of viable cells. After the 72 hours of incubation with drug, 25 μL of MTS+PMS solution was added to each microtiter well and incubated for 4 hours at 37° C. Plates were then removed from incubator and placed on plate shaker for 5 minutes (covered with aluminium foil for protection from light). Optical densities were read at 490 nm on spectrophotometer plate reader.
(§2) The microtiter plates were incubated for 72 hrs, at 5% CO2 and 37° C. The cytotoxic effect was measured by MTS Assay. Optical densities read at 490 nm. Normalized data was plotted and interpreted as described. Data was analysed as: • 1. Prism (Graphpad) software program was used to normalized the data to control values (100%=cell growth in the absence of agent (drug); 0%=blank control). • 2. Data normalized were plotted as scatter plots.
(§3) Conversely, antagonism was concluded when inhibition was lower than both maxima. […] Statistical significance was assessed by performing a student's t-test on the inhibition at each dose ratio versus the inhibition at the maximum for each drug.
(§4) As a visual aid, response values were plotted on a scatter plot with dose ratios given on the x-axis and % response values on the y-axis. […] In cases where response values at the two endpoints were approximately equivalent, points lying above or below this predicted line of additivity could be interpreted as representing antagonistic or synergistic drug interaction, respectively.

HL60 cells = details: HL60, 72 hours drug exposure, read-out: IC50 (Molar)
Procedure: as §1, §2, §3, §4

HT29 cells = details: HT29, 72 hours drug exposure, read-out: IC50 (Molar)
Procedure: as §1, §2, §3, §4

MOLT3 cells = details: MOLT3, 72 hours drug exposure, read-out: IC50 (Molar)
Procedure: as §1, §2, §3, §4

MX1 cells = details: MX1, 72 hours drug exposure, read-out: IC50 (Molar)
Procedure: as §1, §2, §3, §4

PC3 cells = details: PC3, 72 hours drug exposure, read-out: IC50 (Molar)
Procedure: as §1, §2, §3, §4

SKBR3 cells = details: SKBR3, 72 hours drug exposure, read-out: IC50 (Molar)
Procedure: as §1, §2, §3, §4

## N.N.O=C([O-])C1(C(=O)[O-])CCC1.[Pt+2] [carboplatin]
A549 cells
  IC50: 310 µM
HL60 cells
  IC50: 56 µM
HT29 cells
  IC50: 260 µM
MOLT3 cells
  IC50: 4 µM
MX1 cells
  IC50: > 100 µM
PC3 cells
  IC50: > 100 µM
SKBR3 cells
  IC50: 52 µM
